Data: paper PMC12739383, “Optimization of solid-state fermentation conditions for high β-galactosidase-producing lactic acid bacteria and its application in low-lactose dairy products” (Frontiers in Bioengineering and Biotechnology, 2025)

Key:
Assay type in all cases: biochemical, Lactiplantibacillus plantarum
[1] = system: T1, β-galactosidase produced by L. plantarum LP-15; assay: o-nitrophenol release at […] nm, Lineweaver-Burk, […]; conditions: optimal conditions (pH 6.5, 42 °C); 50 mM phosphate buffer; partially purified enzyme; read-out: Value/Range
T1 construct: gene lacL; native enzyme from solid-state fermentation extract

[2] = target: T1, β-galactosidase produced by L. plantarum LP-15; assay: product inhibition kinetics; conditions: competitive, inhibited substrate not told, partially purified enzyme, read-out: Value/Range
Text: product inhibition kinetics on β-galactosidase produced by L. plantarum LP-15

[3] = system: T1, β-galactosidase produced by L. plantarum LP-15; assay: initial rate kinetics; lactose read-out not told; conditions: conditions not given; partially purified enzyme; read-out: Value/Range
Text: initial rate kinetics; lactose read-out not told on β-galactosidase produced by L. plantarum LP-15

**Q.** `O=[N+]([O-])c1ccccc1O[C@@H]1O[C@H](CO)[C@H](O)[C@H](O)[C@H]1O` [ONPG, o-Nitrophenyl-β-D-galactopyranoside] was tested. Which Km [1] did it give?
**A.** 2.8 ± 0.1 mM

**Q.** How did the Ki [2] turn out when `OC[C@H]1OC(O)[C@H](O)[C@@H](O)[C@H]1O` (stereo partly drawn) [galactose] was run?
**A.** 85 mM

**Q.** How did the Km [3] turn out when `OC[C@H]1O[C@@H](O[C@H]2[C@H](O)[C@@H](O)C(O)O[C@@H]2CO)[C@H](O)[C@@H](O)[C@H]1O` (stereo partly drawn) [lactose] was run?
**A.** 18.5 ± 0.5 mM
